Blank lines part the entries; values can stand above or below the molecule they belong to.
Target: T1, SPAST Spastin (Homo sapiens, UniProt Q9UBP0)
T1 construct: endogenous in cells; host or cells: MDA-MB-231 lysate
T1 sequence (Q9UBP0 1-616): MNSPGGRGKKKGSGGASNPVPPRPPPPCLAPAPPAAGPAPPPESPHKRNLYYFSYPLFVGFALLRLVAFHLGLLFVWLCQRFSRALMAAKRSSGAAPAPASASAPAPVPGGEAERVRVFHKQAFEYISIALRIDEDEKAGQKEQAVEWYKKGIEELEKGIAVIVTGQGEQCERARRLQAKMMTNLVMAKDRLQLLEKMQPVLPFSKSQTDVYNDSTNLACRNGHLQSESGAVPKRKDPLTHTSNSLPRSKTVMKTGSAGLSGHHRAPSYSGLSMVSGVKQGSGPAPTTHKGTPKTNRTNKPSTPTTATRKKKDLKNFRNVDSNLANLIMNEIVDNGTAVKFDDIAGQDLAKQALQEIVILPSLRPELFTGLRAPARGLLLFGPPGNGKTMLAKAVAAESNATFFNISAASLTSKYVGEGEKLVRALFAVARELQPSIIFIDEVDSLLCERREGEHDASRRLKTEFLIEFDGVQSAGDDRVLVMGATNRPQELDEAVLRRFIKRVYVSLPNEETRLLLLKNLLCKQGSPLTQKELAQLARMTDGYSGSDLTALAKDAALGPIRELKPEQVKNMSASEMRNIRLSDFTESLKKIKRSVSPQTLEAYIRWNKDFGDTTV
Assay: competitive isoTOP-ABPP
Type: binding
Settings: for isoTOP-ABPP ratio (R) at liganded lysine Q9UBP0_K180 / R value (DMSO/fragment) for probe 1 labeling / isoTOP-ABPP reactivity ratio at lysine Q9UBP0_K180: 50 uM, in vitro; for isoTOP-ABPP ratio (R) at liganded lysine Q9UBP0_K180: sol, 231; for R value (DMSO/fragment) for probe 1 labeling: Q9UBP0_K180; for R value (DMSO/fragment) for probe 1 labeling / isoTOP-ABPP reactivity ratio at lysine Q9UBP0_K180: 231 sol
Method in brief: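 Probe: STP-alkyne, 0.1 mM, 1 h RT, after fragment pretreatment of lysate (esters 50 μM; guanidinylators 100 μM). Tags: light = compound, heavy = DMSO, via CuAAC. Replicates averaged if SD <60% of mean; otherwise lowest ratio used when any R <4.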

SMILES: CC(C)(C)OC(=O)NCCCC(=O)Oc1ccc([N+](=O)[O-])cc1[N+](=O)[O-] [fragment 41, 2,4-Dinitrophenyl 4-((tert-butoxycarbonyl)amino)butanoate]
- isoTOP-ABPP ratio (R) at liganded lysine Q9UBP0_K180: 1.4

- R value (DMSO/fragment) for probe 1 labeling: 1.0
SMILES: Cn1cc(CC(=O)Oc2c(F)c(F)c(F)c(F)c2F)c2ccccc21 [fragment 22, Pentafluorophenyl 2-(1-methyl-1H-indol-3-yl)acetate]

SMILES: O=C(Oc1ccc([N+](=O)[O-])cc1[N+](=O)[O-])c1ccc(-c2ccccc2)cc1 [fragment 37, 2,4-Dinitrophenyl [1,1′-biphenyl]-4-carboxylate]
- isoTOP-ABPP ratio (R) at liganded lysine Q9UBP0_K180: 1.1

SMILES: COc1cc(CCC(=O)Oc2ccc([N+](=O)[O-])cc2[N+](=O)[O-])cc(OC)c1OC [fragment 33, 2,4-Dinitrophenyl 3-(3,4,5-trimethoxyphenyl)propanoate]
- isoTOP-ABPP reactivity ratio at lysine Q9UBP0_K180: 0.7

- R value (DMSO/fragment) for probe 1 labeling: 1.2
SMILES: O=C(Oc1c(F)c(F)c(F)c(F)c1F)C(c1ccccc1)c1ccccc1 [fragment 20, Pentafluorophenyl 2,2-diphenylacetate]

SMILES: O=C(CCc1ccc2c(c1)OCO2)Oc1ccc([N+](=O)[O-])cc1[N+](=O)[O-] [fragment 45, 2,4-Dinitrophenyl 3-(benzo[d][1,3]dioxol-5-yl)propanoate]
- isoTOP-ABPP ratio, lysine Q9UBP0_K180 (50 uM_231_sol_in vitro): 1.7

SMILES: O=C(ON1C(=O)CCC1=O)c1cc(C(F)(F)F)cc(C(F)(F)F)c1 [fragment 46, 3,5-Bis(trifluoromethyl)benzoic acid NHS ester]
- isoTOP-ABPP ratio, lysine Q9UBP0_K180 (50 uM_231_sol_in vitro): 4.4

SMILES: O=C(Oc1ccc([N+](=O)[O-])cc1[N+](=O)[O-])c1ccc(Oc2ccccc2)cc1 [fragment 39, 2,4-Dinitrophenyl 4-phenoxybenzoate]
- isoTOP-ABPP ratio (R) at liganded lysine Q9UBP0_K180: 1.4

- isoTOP-ABPP reactivity ratio at lysine Q9UBP0_K180: 1.2
SMILES: O=C(Oc1c(F)c(F)c(F)c(F)c1F)c1ccc2ccccc2n1 [fragment 25, Pentafluorophenyl quinoline-2-carboxylate]

SMILES: O=C(Oc1ccc([N+](=O)[O-])cc1[N+](=O)[O-])c1cc(C(F)(F)F)cc(C(F)(F)F)c1 [fragment 31, 2,4-Dinitrophenyl 3,5-bis(trifluoromethyl)benzoate]
- isoTOP-ABPP reactivity ratio at lysine Q9UBP0_K180: 1.1

- isoTOP-ABPP reactivity ratio at lysine Q9UBP0_K180: 2.1
SMILES: O=C(CN1C(=O)c2ccccc2C1=O)Oc1c(F)c(F)c(F)c(F)c1F [fragment 27, Pentafluorophenyl 2-(1,3-dioxoisoindolin-2-yl)acetate]

SMILES: CC(=O)Oc1ccc([N+](=O)[O-])cc1[N+](=O)[O-] [fragment 43, 2,4-Dinitrophenyl acetate]
- isoTOP-ABPP ratio (R) at liganded lysine Q9UBP0_K180: 2.7

SMILES: O=C(Oc1ccc([N+](=O)[O-])cc1[N+](=O)[O-])C(c1ccccc1)(c1ccccc1)c1ccccc1 [fragment 42, 2,4-Dinitrophenyl 2,2,2-triphenylacetate]
- isoTOP-ABPP ratio (R) at liganded lysine Q9UBP0_K180: 1.0

- R value (DMSO/fragment) for probe 1 labeling: 1.8
SMILES: O=C(Oc1c(F)c(F)c(F)c(F)c1F)c1cc(C(F)(F)F)cc(C(F)(F)F)c1 [fragment 21, Pentafluorophenyl 3,5-bis(trifluoromethyl)benzoate]

SMILES: Cn1cc(CC(=O)Oc2ccc([N+](=O)[O-])cc2[N+](=O)[O-])c2ccccc21 [fragment 32, 2,4-Dinitrophenyl 2-(1-methyl-1H-indol-3-yl)acetate]
- isoTOP-ABPP reactivity ratio at lysine Q9UBP0_K180: 2.5

SMILES: O=C(CCc1cn(-c2ccccc2)nc1-c1ccccc1)Oc1ccc([N+](=O)[O-])cc1[N+](=O)[O-] [fragment 29, 2,4-Dinitrophenyl 3-(1,3-diphenyl-1H-pyrazol-4-yl)propanoate]
- isoTOP-ABPP reactivity ratio at lysine Q9UBP0_K180: 1.2

- isoTOP-ABPP reactivity ratio at lysine Q9UBP0_K180: 1.1
SMILES: O=C(Oc1c(F)c(F)c(F)c(F)c1F)C1CCN(C(=O)OCc2ccccc2)CC1 [fragment 24, 1-Benzyl 4-(pentafluorophenyl) piperidine-1,4-dicarboxylate]

SMILES: O=C(CC12CC3CC(CC(C3)C1)C2)Oc1ccc([N+](=O)[O-])cc1[N+](=O)[O-] [fragment 38, 2,4-Dinitrophenyl 2-(adamantan-1-yl)acetate]
- isoTOP-ABPP ratio (R) at liganded lysine Q9UBP0_K180: 2.1

- isoTOP-ABPP ratio, lysine Q9UBP0_K180 (100 uM_231_sol_in vitro): 2.0
SMILES: CC(C)(C)OC(=O)N=C(NC(=O)OC(C)(C)C)n1cccn1 [fragment 50, reference compound]

- isoTOP-ABPP reactivity ratio at lysine Q9UBP0_K180: 1.0
SMILES: CCn1cc(C(=O)Oc2c(F)c(F)c(F)c(F)c2F)c(=O)c2ccc(C)nc21 [fragment 28, Pentafluorophenyl 1-ethyl-7-methyl-4-oxo-1,4-dihydro-1,8-naphthyridine-3-carboxylate]

- R value (DMSO/fragment) for probe 1 labeling: 1.3
SMILES: O=C(CCc1cn(-c2ccccc2)nc1-c1ccccc1)Oc1c(F)c(F)c(F)c(F)c1F [fragment 19, Pentafluorophenyl 3-(1,3-diphenyl-1H-pyrazol-4-yl)propanoate]

Source: patent publication US20210255193A1, “LYSINE REACTIVE PROBES AND USES THEREOF” (The Scripps Research Institute, priority 2017, published 2021)
